Experiments:
human OX1 receptors = target: T1, human OX1 receptors (Homo sapiens, UniProt O43613); assay: Antagonistic activity against human OX1 receptor, [Ca2+]i fluorimetry (Fluo-4NW) in transfected CHO cells activated with orexin-A; format: cell-based; conditions: CHO cells transfected with human recombinant OX1; orexin-A 3 nM; pKb = co-logarithm of apparent dissociation constant, modified Cheng Prusoff
T1 construct: expressed in transfected cells; host or cells: CHO cells
T1 sequence (O43613 1-425): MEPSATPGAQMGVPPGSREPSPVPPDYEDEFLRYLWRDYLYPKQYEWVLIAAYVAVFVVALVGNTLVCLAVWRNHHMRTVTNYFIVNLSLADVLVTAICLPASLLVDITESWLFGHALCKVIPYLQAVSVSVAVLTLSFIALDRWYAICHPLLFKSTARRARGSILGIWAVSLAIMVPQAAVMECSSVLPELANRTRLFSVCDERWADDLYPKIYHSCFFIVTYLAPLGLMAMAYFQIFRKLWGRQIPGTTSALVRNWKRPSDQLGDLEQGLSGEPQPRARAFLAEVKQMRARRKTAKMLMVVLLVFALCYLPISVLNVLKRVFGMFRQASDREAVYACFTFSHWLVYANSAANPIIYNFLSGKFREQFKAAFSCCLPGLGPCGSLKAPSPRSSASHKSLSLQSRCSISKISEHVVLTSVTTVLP
Description: (§1) In a typical experiment, the antagonistic activity against human OX1 and OX2 receptors is determined by using CHO e HEK-293 cells transfected with human recombinant OX1 and OX2 receptors respectively, seeded at density of 2 and 3×10^4 cells/well respectively in a 96 fluorimetry well plate. Thus the plate was loaded with the calcium dye (Fluo-4NW/probenecid in HBSS, Hepes 20 mM, pH 7.4; Invitrogen) at 37° C. for 60 min. Afterward the temperature was equilibrated at 22° C. for 15 min and the [Ca2+]i measured directly on the plate by using a fluorescent plate reader (CellLux Perkin Elmer).
(§2) Invention compounds were dissolved in DMSO, diluted in HBSS (DMSO, 0.3% final) and added to the wells. After 5 min CHO cells were activated with orexin-A, 3 nM while HEK-293 cells were activated with orexin-B, 10 nM.
(§3) The compounds, dissolved in DMSO and diluted in the medium (DMSO, 0.3% final), have been analysed in the 1 nM-1 μM concentration range (every concentration in duplicate). The antagonistic activity has been expressed as pKb (co-logarithm of the apparent dissociation constant calculated by using the modified Cheng Prusoff equation).
(§4) The results are expressed as percent of control specific […] response ((measured specific response/control specific agonist response)×100) obtained in the presence of the test compounds.
(§5) The IC50 values (concentration causing a half-maximal inhibition of the control specific agonist response) were determinated by non-linear regression analysis of the concentration curves generated with mean replicate values using hill equation curve fitting. The IC50 values are obtained by the arithmetical mean of at least two experiments. Compounds of the following example tested according to this example gave pKbs as follows: […]

human OX2 receptors = target: T2, human OX2 receptors (Homo sapiens, UniProt O43614); assay: Antagonistic activity against human OX2 receptor, [Ca2+]i fluorimetry (Fluo-4NW) in transfected HEK-293 cells activated with orexin-B; format: cell-based; conditions: HEK-293 cells transfected with human recombinant OX2; orexin-B 10 nM; pKb = co-logarithm of apparent dissociation constant, modified Cheng Prusoff
T2 construct: expressed in transfected cells; host or cells: HEK-293 cells
T2 sequence (O43614 1-444): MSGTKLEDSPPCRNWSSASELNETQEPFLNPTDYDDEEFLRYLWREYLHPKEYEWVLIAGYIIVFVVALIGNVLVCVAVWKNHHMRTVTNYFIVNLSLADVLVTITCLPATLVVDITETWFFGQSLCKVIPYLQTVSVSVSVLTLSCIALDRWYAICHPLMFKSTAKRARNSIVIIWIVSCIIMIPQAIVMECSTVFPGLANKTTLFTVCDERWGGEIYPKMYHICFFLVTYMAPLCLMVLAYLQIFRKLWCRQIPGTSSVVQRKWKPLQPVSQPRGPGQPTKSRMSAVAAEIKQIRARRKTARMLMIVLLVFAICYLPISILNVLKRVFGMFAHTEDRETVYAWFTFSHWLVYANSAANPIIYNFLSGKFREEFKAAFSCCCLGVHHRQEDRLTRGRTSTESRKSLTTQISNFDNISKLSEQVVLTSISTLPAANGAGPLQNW
Description: as §1, §2, §3, §4, §5

Structure (SMILES)	Kb (human OX1 receptors)	Kb (human OX2 receptors)
Cc1cccc(NC[C@@H]2CC3(CC3)CN2C(=O)c2nc(C)sc2-c2ccccc2)n1 [Compound 2c, (S)-(2-methyl-5-phenylthiazol-4-yl)(6-(((6-methylpyridin-2-yl)amino)methyl)-5-azaspiro[2.4]heptan-5-yl)methanone]	50.1 nM	25.1 nM
Cc1nc(C(=O)N2CC3(CC3)C[C@H]2CNc2nc3ccccc3o2)c(-c2ccccc2)s1 [Compound 2b, (S)-(6-((benzo[d]oxazol-2-ylamino)methyl)-5-azaspiro[2.4]heptan-5-yl)(2-methyl-5-phenylthiazol-4-yl)methanone]	0.794 nM	2.51 nM
Cc1nc(C(=O)N2CC3(CC3)C[C@H]2CNc2cc(C(F)(F)F)ccn2)c(-c2ccccc2)s1 [Compound 2j, (S)-(2-methyl-5-phenylthiazol-4-yl)(6-(((4-(trifluoromethyl)pyridin-2-yl)amino)methyl)-5-azaspiro[2.4]heptan-5-yl)methanone]	6.31 nM	3.16 nM
Cc1nc(C(=O)N2CC3(CC3)C[C@H]2CNc2nccc3ccccc23)c(-c2ccccc2)s1 [Compound 2e, (S)-(6-((isoquinolin-1-ylamino)methyl)-5-azaspiro[2.4]heptan-5-yl)(2-methyl-5-phenylthiazol-4-yl)methanone]	2.51 nM	2.51 nM
Cc1nc(C(=O)N2CC3(CC3)C[C@H]2CNc2nc3ccc(Cl)cc3s2)c(-c2ccccc2)s1 [Compound 2i, (S)-(6-(((6-chlorobenzo[d]thiazol-2-yl)amino)methyl)-5-azaspiro[2.4]heptan-5-yl)(2-methyl-5-phenylthiazol-4-yl)methanone]	12.6 nM	31.6 nM
Cc1nc(C(=O)N2CC3(CC3)C[C@H]2CNc2ccc(C(F)(F)F)cn2)c(-c2ccccc2)s1 [Compound 2d, (S)-(2-methyl-5-phenylthiazol-4-yl)(6-(((5-(trifluoromethyl)pyridin-2-yl)amino)methyl)-5-azaspiro[2.4]heptan-5-yl)methanone]	3.98 nM	20 nM
Cc1ccc(-c2ccccc2)c(C(=O)N2CC3(CC3)C[C@H]2CNc2ncc(C(F)(F)F)cc2F)n1 [Compound 3e, (S)-(6-(((3-fluoro-5-(trifluoromethyl)pyridin-2-yl)amino)methyl)-5-azaspiro[2.4]heptan-5-yl)(6-methyl-3-phenylpyridin-2-yl)methanone]	3.98 nM	7.94 nM
Cc1ccc(-c2ncccn2)c(C(=O)N2CC3(CC3)C[C@H]2CNc2nc3ccccc3o2)n1 [Compound E9, (S)-(6-((benzo[d]oxazol-2-ylamino)methyl)-5-azaspiro[2.4]heptan-5-yl)(6-methyl-3-(pyrimidin-2-yl)pyridin-2-yl)methanone]	0.631 nM	25.1 nM
Cc1cnn(-c2ccc(C)nc2C(=O)N2CC3(CC3)C[C@H]2CNc2ccc(C(F)(F)F)cn2)c1 [Compound 3i, (S)-(6-methyl-3-(4-methyl-1H-pyrazol-1-yl)pyridin-2-yl)(6-(((5-(trifluoromethyl)pyridin-2-yl)amino)-methyl)-5-azaspiro[2.4]heptan-5-yl)methanone]	1.26 nM	5.01 nM
Cc1ccc(OCc2cc(F)cc(F)c2)c(C(=O)N2CC3(CC3)C[C@H]2CNc2ccc(C(F)(F)F)cn2)n1 [Compound 3o, (S)-(3-((3,5-difluorobenzyl)oxy)-6-methylpyridin-2-yl)(6-(((5-(trifluoromethyl)pyridin-2-yl)amino)methyl)-5-azaspiro[2.4]heptan-5-yl)methanone]	6.31 nM	5.01 nM
Cc1ccc(-c2ccc(F)cc2)c(C(=O)N2CC3(CC3)C[C@H]2CNc2ccc(C(F)(F)F)cn2)n1 [Compound 3f, (S)-(3-(4-fluorophenyl)-6-methylpyridin-2-yl)(6-(((5-(trifluoromethyl)pyridin-2-yl)amino)methyl)-5-azaspiro[2.4]heptan-5-yl)methanone]	7.94 nM	7.94 nM

Further lines, results first:

Kb (human OX1 receptors)	Kb (human OX2 receptors)	Structure (SMILES)
12.6 nM	200 nM	Cc1cccc(C(=O)N2CC3(CC3)C[C@H]2CNc2ccc(C(F)(F)F)cn2)c1-c1ncccn1 [Compound 1c, (S)-(3-methyl-2-(pyrimidin-2-yl)phenyl)(6-(((5-(trifluoromethyl)pyridin-2-yl)amino)methyl)-5-azaspiro[2.4]heptan-5-yl)methanone]
12.6 nM	20 nM	Cc1ccc(-c2ccc(F)c(F)c2)c(C(=O)N2CC3(CC3)C[C@H]2CNc2ccc(C(F)(F)F)cn2)n1 [Compound E11, (S)-(3-(3,4-difluorophenyl)-6-methylpyridin-2-yl)(6-(((5-(trifluoromethyl)pyridin-2-yl)amino)methyl)-5-azaspiro[2.4]heptan-5-yl)methanone]
3.98 nM	31.6 nM	Cc1ccc(-c2ncccn2)c(C(=O)N2CC3(CC3)C[C@H]2CNc2ccc(C(F)(F)F)cn2)n1 [Compound 3a, (S)-(6-methyl-3-(pyrimidin-2-yl)pyridin-2-yl)(6-(((5-(trifluoromethyl)pyridin-2-yl)amino)methyl)-5-azaspiro[2.4]heptan-5-yl)methanone]
6.31 nM	39.8 nM	Cc1ccc(-c2ncccn2)c(C(=O)N2CC3(CC3)C[C@H]2CNc2ncc(Cl)cc2F)n1 [Compound 3c, (S)-(6-(((5-chloro-3-fluoropyridin-2-yl)amino)methyl)-5-azaspiro[2.4]heptan-5-yl)(6-methyl-3-(pyrimidin-2-yl)pyridin-2-yl)methanone]
6.31 nM	39.8 nM	Cc1ccc(-c2ncccn2)c(C(=O)N2CC3(CC3)C[C@H]2CNc2cnc(C(F)(F)F)cn2)n1 [Compound 3h, (S)-(6-methyl-3-(pyrimidin-2-yl)pyridin-2-yl)(6-(((5-(trifluoromethyl)pyrazin-2-yl)amino)methyl)-5-azaspiro[2.4]heptan-5-yl)methanone]
7.94 nM	79.4 nM	Cc1ccc(-c2ncccn2)c(C(=O)N2CC3(CC3)C[C@H]2CNc2nc3cc(Cl)ccc3o2)n1 [Compound E10, (S)-(6-(((5-chlorobenzo[d]oxazol-2-yl)amino)methyl)-5-azaspiro[2.4]heptan-5-yl)(6-methyl-3-(pyrimidin-2-yl)pyridin-2-yl)methanone]
6.31 nM	10 nM	O=C(c1cc(Cl)ccc1-c1ncccn1)N1CC2(CC2)C[C@H]1CNc1cc(Cl)c(C(F)(F)F)cn1 [Compound 1v, (S)-(5-chloro-2-(pyrimidin-2-yl)phenyl)(6-(((4-chloro-5-(trifluoromethyl)pyridin-2-yl)amino)methyl)-5-azaspiro[2.4]heptan-5-yl)methanone]
5.01 nM	10 nM	Cc1ccc(-c2ncccn2)c(C(=O)N2CC3(CC3)C[C@H]2CNc2ncc(C(F)(F)F)cc2Cl)n1 [Compound 3g, (S)-(6-(((3-chloro-5-(trifluoromethyl)pyridin-2-yl)amino)methyl)-5-azaspiro[2.4]heptan-5-yl)(6-methyl-3-(pyrimidin-2-yl)pyridin-2-yl)methanone]
39.8 nM	12.6 nM	O=C(c1c(F)cccc1-c1ncccn1)N1CC2(CC2)C[C@H]1CNc1cc(C(F)(F)F)ccn1 [Compound 1h, (S)-(2-fluoro-6-(pyrimidin-2-yl)phenyl)(6-(((4-(trifluoromethyl)pyridin-2-yl)amino)methyl)-5-azaspiro[2.4]heptan-5-yl)methanone]
15.8 nM	200 nM	O=C(c1cc(Cl)ccc1-c1ncccn1)N1CC2(CC2)C[C@H]1CNc1ncc(C(F)(F)F)cn1 [Compound 1u, (S)-(5-chloro-2-(pyrimidin-2-yl)phenyl)(6-(((5-(trifluoromethyl)pyrimidin-2-yl)amino)methyl)-5-azaspiro[2.4]heptan-5-yl)methanone]

— patent US9062033B2, “Chemical compounds” (Rottapharm Biotech S.r.l., priority 2011, dated 2015)
